# What was measured:
# Format in all cases: biochemical
# [1] = biological target: T1, PIP4K2B (Homo sapiens, UniProt P78356); experiment: Trans-FI P kinase assay PIP4K2B (PIP4KtypeIIB inhibition assay); details: compounds listed under IC50 bin headings; 100 uM GTP; read-out: Trans-FI P kinase assays: PIP4K2B IC50
# T1 construct: made in house; host or cells: E. coli
# T1 sequence (P78356 1-416): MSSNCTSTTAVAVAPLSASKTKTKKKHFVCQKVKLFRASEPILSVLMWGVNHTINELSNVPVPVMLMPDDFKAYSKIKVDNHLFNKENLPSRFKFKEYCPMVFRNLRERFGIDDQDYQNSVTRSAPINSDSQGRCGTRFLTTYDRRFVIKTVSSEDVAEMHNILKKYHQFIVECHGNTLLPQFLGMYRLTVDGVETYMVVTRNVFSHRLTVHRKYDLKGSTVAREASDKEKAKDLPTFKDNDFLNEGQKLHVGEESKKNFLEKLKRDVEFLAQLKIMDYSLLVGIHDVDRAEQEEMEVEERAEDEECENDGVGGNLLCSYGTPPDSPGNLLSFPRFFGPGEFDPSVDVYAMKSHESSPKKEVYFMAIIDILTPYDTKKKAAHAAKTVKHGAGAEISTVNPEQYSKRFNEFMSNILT
# Outline: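 Transcreener FI fluorescence read-out of GDP formed by E. coli-expressed GST-PIP4K2B (5 nM) using 100 uM GTP and 80 uM PI5P with DOPE carrier lipid, pH 7.3, 2 h reaction. Compounds (up to 4.8 uM) were preincubated with enzyme 1 h at 27 C; IC50 fitted from residual activity relative to no-inhibitor control.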
# [2] = biological target: T2, PIP4K 2A (Homo sapiens, UniProt P48426); experiment: Kinase Assay PIP4K2 A (PIP4KtypeIIA inhibition assay); parameters: made in house; host or cells: E. coli; details: compounds listed under IC50 bin headings
# T2 sequence (P48426 1-406): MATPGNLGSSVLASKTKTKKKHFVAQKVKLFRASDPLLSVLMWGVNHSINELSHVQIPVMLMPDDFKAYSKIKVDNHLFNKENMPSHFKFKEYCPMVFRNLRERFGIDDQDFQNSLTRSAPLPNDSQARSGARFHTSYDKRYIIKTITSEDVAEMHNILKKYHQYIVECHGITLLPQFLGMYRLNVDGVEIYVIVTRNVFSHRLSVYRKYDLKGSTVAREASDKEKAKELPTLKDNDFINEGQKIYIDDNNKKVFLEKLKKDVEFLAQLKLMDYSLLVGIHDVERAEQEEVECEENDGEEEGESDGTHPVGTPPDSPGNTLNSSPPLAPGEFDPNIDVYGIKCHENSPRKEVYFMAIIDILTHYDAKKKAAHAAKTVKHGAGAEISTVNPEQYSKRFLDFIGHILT
# Outline: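 GST-tagged enzyme from E. coli at 0.5 nM final was preincubated with compound for 1 h at 27 C, then reacted with 10 uM ATP, 80 uM PI5P and DOPE carrier in 50 mM HEPES pH 7.3, 5% DMSO. After 1 h, ADP was measured by ADP-Glo luminescence against a calibration curve. IC50 was fitted from % residual activity.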
# [3] = biological target: T2, PIP4K 2A; experiment: ADP-glo kinase assay PIP4K 2A; parameters: 4 nM PIP4K2A (full length protein, SignalChem); purchased SignalChem; details: compounds listed under IC50 bin headings
# Outline: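 Inhibition was calculated versus DMSO controls from ADP-Glo luminescence and fitted to IC50 over a 10-point, threefold series. Compound was first pre-incubated 15 min at room temperature with PIP4K2A (full-length; 4 nM in the enzyme/substrate mix) and PI(5)P diC8 (100 μM in that mix). The reaction then ran for 1 h after adding 60 μM ATP solution, in MOPS pH 7.2/MgCl2/Tween buffer.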
SMILES,IC50 [1] [nM],IC50 [2] [nM],IC50 [3] [nM]
"CC1Oc2cc(N3CCCC3=O)ccc2-c2cnc(Nc3cncnc3)cc21 (stereo not drawn) [Example 80, 1-(5-methyl-3-(pyrimidin-5-ylamino)-5H-chromeno[4,3-c]pyridin-8-yl)pyrrolidin-2-one]",100 to 1000,10 to 100,10 to 100
"CC1Oc2cc(N3CCCC3=O)ccc2-c2cnc(Nc3cncc(C(F)(F)F)c3)cc21 (stereo not drawn) [Example 81, 1-(5-methyl-3-((5-(trifluoromethyl)pyridin-3-yl)amino)-5H-chromeno[4,3-c]pyridin-8-yl)pyrrolidin-2-one]",> 1000,10 to 100,100 to 1000
"CC1Oc2cc(N3CCCC3=O)ccc2-c2cnc(Nc3cnc4c(c3)N(C(=O)C3CC3)CCO4)cc21 (stereo not drawn) [Example 82, 1-(3-((1-(cyclopropanecarbonyl)-2,3-dihydro-1H-pyrido[2,3-b][1,4]oxazin-7-yl)amino)-5-methyl-5H-chromeno[4,3-c]pyridin-8-yl)pyrrolidin-2-one]",1 to 10,≤ 1,≤ 1
"COC(=O)N1CCOc2ncc(Nc3cc4c(cn3)-c3ccc(N5CCCC5=O)cc3OC4C)cc21 (stereo not drawn) [Example 83, methyl 7-((5-methyl-8-(2-oxopyrrolidin-1-yl)-5H-chromeno[4,3-c]pyridin-3-yl)amino)-2,3-dihydro-1H-pyrido[2,3-b][1,4]oxazine-1-carboxylate]",1 to 10,≤ 1,≤ 1
"CC(C)C(=O)N1CCOc2ncc(Nc3cc4c(cn3)-c3ccc(N5CCCC5=O)cc3OC4C)cc21 (stereo not drawn) [Example 84, 1-(3-((1-isobutyryl-2,3-dihydro-1H-pyrido[2,3-b][1,4]oxazin-7-yl)amino)-5-methyl-5H-chromeno[4,3-c]pyridin-8-yl)pyrrolidin-2-one]",1 to 10,≤ 1,≤ 1
"CC1Oc2cc(N3CCCC3=O)ccc2-c2cnc(Nc3cnc4c(c3)N(S(=O)(=O)C(C)C)CCO4)cc21 (stereo not drawn) [Example 85, 1-(3-((1-(isopropylsulfonyl)-2,3-dihydro-1H-pyrido[2,3-b][1,4]oxazin-7-yl)amino)-5-methyl-5H-chromeno[4,3-c]pyridin-8-yl)pyrrolidin-2-one]",10 to 100,≤ 1,1 to 10
"CC1Oc2cc(N3CCCC3=O)ccc2-c2cnc(Nc3cnc4c(c3)N(C(=O)C(C)(C)C)CCO4)cc21 (stereo not drawn) [Example 86, 1-(5-methyl-3-((1-pivaloyl-2,3-dihydro-1H-pyrido[2,3-b][1,4]oxazin-7-yl)amino)-5H-chromeno[4,3-c]pyridin-8-yl)pyrrolidin-2-one]",1 to 10,≤ 1,≤ 1
"COc1ncc(Nc2cc3c(cn2)-c2ccc(N4CCCC4=O)cc2OC3C)cc1NC(C)=O (stereo not drawn) [Example 87, N-(2-methoxy-5-((5-methyl-8-(2-oxopyrrolidin-1-yl)-5H-chromeno[4,3-c]pyridin-3-yl)amino)pyridin-3-yl)acetamide]",10 to 100,1 to 10,1 to 10
"COc1ncc(Nc2cc3c(cn2)-c2ccc(N4CCCC4=O)cc2OC3C)cc1NS(C)(=O)=O (stereo not drawn) [Example 88, N-(2-methoxy-5-((5-methyl-8-(2-oxopyrrolidin-1-yl)-5H-chromeno[4,3-c]pyridin-3-yl)amino)pyridin-3-yl)methanesulfonamide]",10 to 100,1 to 10,1 to 10
"COc1ncc(Nc2cc3c(cn2)-c2ccc(N4CCCC4=O)cc2OC3C)cc1N(C)C(C)=O (stereo not drawn) [Example 89, N-(2-methoxy-5-((5-methyl-8-(2-oxopyrrolidin-1-yl)-5H-chromeno[4,3-c]pyridin-3-yl)amino)pyridin-3-yl)-N-methylacetamide]",> 1000,100 to 1000,100 to 1000
"COc1ncc(Nc2cc3c(cn2)-c2ccc(N4CCCC4=O)cc2OC3C)cc1N(C)S(C)(=O)=O (stereo not drawn) [Example 90, N-(2-methoxy-5-((5-methyl-8-(2-oxopyrrolidin-1-yl)-5H-chromeno[4,3-c]pyridin-3-yl)amino)pyridin-3-yl)-N-methylmethanesulfonamide]",100 to 1000,1 to 10,10 to 100
"CC1Oc2cc(N3CCCC3=O)ccc2-c2cnc(Nc3cncc(S(C)(=O)=O)c3)cc21 (stereo not drawn) [Example 91, 1-(5-methyl-3-((5-(methylsulfonyl)pyridin-3-yl)amino)-5H-chromeno[4,3-c]pyridin-8-yl)pyrrolidin-2-one]",> 1000,10 to 100,10 to 100
"CC1Oc2cc(N3CCCC3=O)ccc2-c2cnc(Nc3cnc4c(c3)NC(=O)CO4)cc21 (stereo not drawn) [Example 93, 7-((5-methyl-8-(2-oxopyrrolidin-1-yl)-5H-chromeno[4,3-c]pyridin-3-yl)amino)-1H-pyrido[2,3-b][1,4]oxazin-2(3H)-one]",100 to 1000,1 to 10,10 to 100
"CC1Oc2cc(N3CCCC3=O)ccc2-c2cnc(Nc3cnc4c(c3)NCCO4)cc21 (stereo not drawn) [Example 94, 1-(3-((2,3-dihydro-1H-pyrido[2,3-b][1,4]oxazin-7-yl)amino)-5-methyl-5H-chromeno[4,3-c]pyridin-8-yl)pyrrolidin-2-one]",10 to 100,1 to 10,1 to 10
"CC1Oc2cc(N3CCCC3=O)ccc2-c2cnc(Nc3cncc(N4CCOCC4=O)c3)cc21 (stereo not drawn) [Example 95, 4-(5-((5-methyl-8-(2-oxopyrrolidin-1-yl)-5H-chromeno[4,3-c]pyridin-3-yl)amino)pyridin-3-yl)morpholin-3-one]",100 to 1000,1 to 10,10 to 100
"CC1Oc2cc(N3CCCC3=O)ccc2-c2cnc(Nc3cncc(N4CCOCC4)c3)cc21 (stereo not drawn) [Example 96, 1-(5-methyl-3-((5-morpholinopyridin-3-yl)amino)-5H-chromeno[4,3-c]pyridin-8-yl)pyrrolidin-2-one]",100 to 1000,1 to 10,1 to 10
"Cc1cncc(Nc2cc3c(cn2)-c2ccc(N4CCCC4=O)cc2OC3C)c1 (stereo not drawn) [Example 97, 1-(5-methyl-3-((5-methylpyridin-3-yl)amino)-5H-chromeno[4,3-c]pyridin-8-yl)pyrrolidin-2-one]",100 to 1000,≤ 1,1 to 10
"CC(=O)Nc1cncc(Nc2cc3c(cn2)-c2ccc(N4CCCC4=O)cc2OC3C)c1 (stereo not drawn) [Example 100, N-(5-((5-methyl-8-(2-oxopyrrolidin-1-yl)-5H-chromeno[4,3-c]pyridin-3-yl)amino)pyridin-3-yl)acetamide]",10 to 100,≤ 1,10 to 100
"CC1Oc2cc(N3CCCC3=O)ccc2-c2cnc(Nc3cncc(NC(=O)NCc4ccccc4)c3)cc21 (stereo not drawn) [Example 103, 1-benzyl-3-(5-((5-methyl-8-(2-oxopyrrolidin-1-yl)-5H-chromeno[4,3-c]pyridin-3-yl)amino)pyridin-3-yl)urea]",10 to 100,≤ 1,1 to 10
"CC1Oc2cc(N3CCCC3=O)ccc2-c2cnc(Nc3cncc(NC(=O)c4cccc(N)c4)c3)cc21 (stereo not drawn) [Example 106, 3-amino-N-(5-((5-methyl-8-(2-oxopyrrolidin-1-yl)-5H-chromeno[4,3-c]pyridin-3-yl)amino)pyridin-3-yl)benzamide]",10 to 100,≤ 1,1 to 10
"CC1Oc2cc(N3CCCC3=O)ccc2-c2cnc(Nc3ccnnc3)cc21 (stereo not drawn) [Example 127, 1-(5-methyl-3-(pyridazin-4-ylamino)-5H-chromeno[4,3-c]pyridin-8-yl)pyrrolidin-2-one]",> 1000,10 to 100,100 to 1000
"CC1Oc2cc(N3CCCC3=O)ccc2-c2cnc(Nc3cccnn3)cc21 (stereo not drawn) [Example 128, 1-(5-methyl-3-(pyridazin-3-ylamino)-5H-chromeno[4,3-c]pyridin-8-yl)pyrrolidin-2-one]",100 to 1000,1 to 10,10 to 100

# From patent publication US11584763B2, “Chromenopyridine derivatives as phosphatidylinositol phosphate kinase inhibitors” (HIBERCELL, INC., priority 2017, dated 2023)
